Data taken from patent US20240415819A1, “MACROCYCLIC COMPOUNDS AS PROTEASOME SUBUNIT BETA TYPE-5 INHIBITORS” (Lead Discovery Center GmbH, priority 2021, published 2024).

Key:
[1] = molecular target: T1, β5 subunit of the human constitutive proteasome (CPS) (Homo sapiens, UniProt P28074); assay: β5 inhibition assay, human constitutive proteasome (Suc-LLVY-AMC); assay type: biochemical; conditions: IC50 class, Suc-LLVY-AMC substrate
T1 construct: purchased Boston Biochem E-360
Protocol: The enzymatic activity of the β5 subunit of the human constitutive proteasome (CPS) is analyzed. In another assay, which differs from the assay of the human constitutive proteasome only in using the human immunoproteasome (IPS) the enzymatic activity of the β5 subunit of the human immunoproteasome (IPS) is analyzed. […] Inhibition is indicated as IC50 [nM] (“-”=not measured).

[2] = molecular target: T2, β5 subunit of the human immunoproteasome (IPS) (Homo sapiens, UniProt P28062); assay: β5 inhibition assay, human immunoproteasome (Suc-LLVY-AMC); assay type: biochemical; conditions: IC50 class, Suc-LLVY-AMC substrate
T2 construct: purchased Boston Biochem E-370
Protocol: The enzymatic activity of the β5 subunit of the human constitutive proteasome (CPS) is analyzed. In another assay, which differs from the assay of the human constitutive proteasome only in using the human immunoproteasome (IPS) the enzymatic activity of the β5 subunit of the human immunoproteasome (IPS) is analyzed. Incubation of the enzyme with its fluorogenic substrate Suc-LLVY-AMC leads to liberation of the fluorescent dye AMC which can be measured with a suitable plate reader. • 100 mM HEPES pH7.5 • 50 mM NaCl • 0.02% SDS • 1 mM DTT (add fresh) • Victor X5 (Perkin Elmer) • Label: Umbeliferone (0.1s) • Excitation wavelength: 355 nm • Emission wavelength: 460 nm • 4 μl human cPS or IPS enzyme in assay buffer (final assay concentration 1 nM) or 4 μl assay buffer for negative controls • Compound addition via acoustic dispenser (Echo 520, Labcyte) • Mix and incubate @ RT for 10 min • 4 μl Suc-LLVY-AMC substrate (final assay concentration 22.6 μM) • Mix and incubate @ RT for 4 h (dark) • Stop reaction with 4 μl Bortezomib (final assay concentration 1 μM) • 15 min @ RT • Measure (Excitation 355 nm; Emission 460 nm)

HT-29 cells = assay: CellTiter-Glo luminescent cell viability assay with HT-29 cells (72h incubation); assay type: cell-based, human; conditions: Homo sapiens, HT-29, HT29 cells, read-out: CTG HT29
Protocol: Cell Titer Glo Viability Assay with HT-29 Cells (72h Incubation) The CellTiter-Glo Luminescent Cell Viability Assay (Promega) is a homogeneous method of determining the number of viable cells in culture. It is based on quantification of ATP, indicating the presence of metabolically active cells. On day 1 400 HT-29 cells per well are seeded in white 384well plates (Greiner, #781080) in 25 μl cell culture medium (DMEM (PAN-Biotech #P04-03590)+10% FCS+glutamine). After incubation for 24 h at 37° C./5% CO2 compounds or DMSO are added at different concentrations by Echo Liquid Handling Technology. Cells are further incubated in humidified chambers for 72 h at 37° C. and 5% CO2. Cells treated with the compound vehicle DMSO are used as positive controls and cells treated with 10 μM Staurosporine serve as negative controls. At day 5-72h after compound addition—the CellTiter Glo Reagent is prepared according to the instructions of the kit (Promega Inc.): Reagent is mixed 1:1 with cell culture medium. Thereon, mixture and assay plates are equilibrated at room temperature for 20 min. Equal volumes of the reagent-medium-mixture is added to the volume of culture medium present in each well. The plates are mixed at […] for 2 minutes on an orbital shaker. The microplates are then incubated at room temperature for 10 minutes for stabilization of the luminescent signal. Following incubation the luminescence is recorded on a Victor microplate reader (Perkin Elmer) using a 200 ms integration time. The data is then analyzed with Excel using the XLFIT Plugin (dose response Fit 205) for IC50-determination. As quality control the Z′-factor is calculated from 16 positive and negative control values. […] Inhibition is indicated as IC50 [nM] (“-”=not measured).

IC50 [1] [nM] | IC50 [2] [nM] | IC50 (HT-29 cells) [nM] | Structure (SMILES)
< 100 | < 100 | < 100 | Cc1ccc2cc1CNC(=O)[C@H](CCc1ccccc1)NC(=O)[C@@H](NC(=O)OCc1ccccc1)CC(=O)N1CC(CCO2)CCC1C (stereo partly drawn) [Compound 315, benzyl ((9S,12S)-1^6,5^4-dimethyl-8,11,14-trioxo-9-phenethyl-4-oxa-7,10-diaza-1(3,1)-piperidina-5(1,3)-benzenacyclotetradecaphane-12-yl)carbamate]
< 100 | < 100 | < 100 | Cc1ccc2cc1CNC(=O)[C@H](CCc1ccccc1)NC(=O)[C@@H](NC(=O)Cc1ccc(N)cc1C)CC(=O)N1CCCC(CCO2)C1 (stereo partly drawn) [Compound 304, 2-(4-amino-2-methylphenyl)-N-((9S,12S)-5^4-methyl-8,11,14-trioxo-9-phenethyl-4-oxa-7,10-diaza-1(3,1)-piperidina-5(1,3)-benzenacyclotetradecaphane-12-yl)acetamide]
< 100 | < 100 | < 100 | Cc1cc(CC(=O)N[C@H]2CC(=O)N3CCCC(CCOc4ccc(C)c(c4)CNC(=O)[C@H](CCc4ccccc4)NC2=O)C3)ccc1N (stereo partly drawn) [Compound 303, 2-(4-amino-3-methylphenyl)-N-((9S,12S)-5^4-methyl-8,11,14-trioxo-9-phenethyl-4-oxa-7,10-diaza-1(3,1)-piperidina-5(1,3)-benzenacyclotetradecaphane-12-yl)acetamide]
< 100 | < 100 | < 100 | Cc1ccc2cc1CNC(=O)[C@H](CCc1ccccc1)NC(=O)[C@@H](NC(=O)c1cccc3c1CNCC3)CC(=O)N1CCCC(CCO2)C1 (stereo partly drawn) [Compound 316, N-((9S,12S)-5^4-methyl-8,11,14-trioxo-9-phenethyl-4-oxa-7,10-diaza-1(3,1)-piperidina-5(1,3)-benzenacyclotetradecaphane-12-yl)-1,2,3,4-tetrahydroisoquinoline-5-carboxamide]
> 5000 | 500 to 1000 | 100 to 500 | Cc1ccc2cc1CNC(=O)[C@H](CCc1ccccc1)NC(=O)[C@@H](NC(=O)OCc1ccccc1)CC(=O)N1CC(CCO2)Cc2ccccc21 (stereo partly drawn) [Compound 313, benzyl ((9S, 12S)-5^4-methyl-8,11,14-trioxo-9-phenethyl-11,12,13,14-tetrahydro-4-oxa-7,10-diaza-1(3,1)-quinolina-5(1,3)-benzenacyclotetradecaphane-12-yl)carbamate]
< 100 | < 100 | < 100 | Cc1ccc2cc1CNC(=O)[C@H](CCc1ccccc1)NC(=O)[C@@H](NC(=O)C1(c3ccc(N)cc3)CC1)CC(=O)N1CCCC(CCO2)C1 (stereo partly drawn) [Compound 307, 1-(4-aminophenyl)-N-((9S,12S)-5^4-methyl-8,11,14-trioxo-9-phenethyl-4-oxa-7,10-diaza-1(3,1)-piperidina-5(1,3)-benzenacyclotetradecaphane-12-yl)cyclopropane-1-carboxamide]
< 100 | < 100 | < 100 | Cc1ccc2cc1CNC(=O)[C@H](CCc1ccccc1)NC(=O)[C@@H](NC(=O)C1CCc3cc(N)ccc31)CC(=O)N1CCCC(CCO2)C1 (stereo partly drawn) [Compound 317, 5-amino-N-((9S,12S)-5^4-methyl-8,11,14-trioxo-9-phenethyl-4-oxa-7,10-diaza-1(3,1)-piperidina-5(1,3)-benzenacyclotetradecaphane-12-yl)-2,3-dihydro-1H-indene-1-carboxamide]
 |  | < 100 | CCC1(C(=O)N[C@H]2CC(=O)N3CCCC(CCOc4ccc(C)c(c4)CNC(=O)[C@H](CCc4ccccc4)NC2=O)C3)CCNCC1 (stereo partly drawn) [Compound 151, 4-ethyl-N-((9S,12S)-5^4-methyl-8,11,14-trioxo-9-phenethyl-4-oxa-7,10-diaza-1(3,1)-piperidina-5(1,3)-benzenacyclotetradecaphane-12-yl)piperidine-4-carboxamide]
 |  | 100 to 500 | CC(=O)N[C@H]1CC(=O)N2CCC(C2)Oc2ccc(C)c(c2)CNC(=O)[C@H](CCc2ccccc2)NC1=O (stereo partly drawn) [Compound 261, N-((7S,10S)-3^4-methyl-6,9,12-trioxo-7-phenethyl-2-oxa-5,8-diaza-1(3,1)-pyrrolidina-3(1,3)-benzenacyclododecaphane-10-yl)acetamide]
 |  | < 100 | Cc1ccc2cc1CNC(=O)[C@H](CCc1ccccc1)NC(=O)[C@@H](NS(=O)(=O)CCCc1ccccc1)CC(=O)N1CCCC(CCO2)C1 (stereo partly drawn) [Compound 44, N-((9S,12S)-5^4-methyl-8,11,14-trioxo-9-phenethyl-4-oxa-7,10-diaza-1(3,1)-piperidina-5(1,3)-benzenacyclotetradecaphane-12-yl)-3-phenyloropane-1-sulfonamide]
< 100 | < 100 | < 100 | Cc1ccc2cc1CNC(=O)[C@H](CCc1ccccc1)NC(=O)[C@@H](NC(=O)C(C)(C)c1ccc(N)cc1)CC(=O)N1CCCC(CCO2)C1 (stereo partly drawn) [Compound 308, 2-(4-aminophenyl)-2-methyl-N-((9S,12S)-5^4-methyl-8,11,14-trioxo-9-phenethyl-4-oxa-7,10-diaza-1(3,1)-piperidina-5(1,3)-benzenacyclotetradecaphane-12-yl)propanamide]
> 5000 | 100 to 500 | 100 to 500 | Cc1ccc2cc1CNC(=O)[C@H](CCc1ccccc1)NC(=O)[C@@H](NC(=O)OCc1ccccc1)CC(=O)N(C)CCO2 [Compound 312, benzyl ((8S,11S)-1^4,5-dimethyl-6,9,12-trioxo-11-phenethyl-2-oxa-5,10,13-triaza-1(1,3)-benzenacyclotetradecaphane-8-yl)carbamate]
< 100 | < 100 | < 100 | Cc1ccc2cc1CNC(=O)[C@H](CCc1ccccc1)NC(=O)[C@@H](NC(=O)C1(c3ccc(N)cc3)CCC1)CC(=O)N1CCCC(CCO2)C1 (stereo partly drawn) [Compound 306, 1-(4-aminophenyl)-N-((9S,12S)-5^4-methyl-8,11,14-trioxo-9-phenethyl-4-oxa-7,10-diaza-1(3,1)-piperidina-5(1,3)-benzenacyclotetradecaphane-12-yl)cyclobutane-1-carboxamide]
 |  | < 100 | CCNC(=O)N[C@H]1CC(=O)N2CCCC(CCOc3ccc(C)c(c3)CNC(=O)[C@H](CCc3ccccc3)NC1=O)C2 (stereo partly drawn) [Compound 38, 1-ethyl-3-((9S,12S)-5^4-methyl-8,11,14-trioxo-9-phenethyl-4-oxa-7,10-diaza-1(3,1)-piperidina-5(1,3)-benzenacyclotetradecaphane-12-yl)urea]
< 100 | < 100 | < 100 | Cc1ccc2cc1CNC(=O)[C@H](CCc1ccccc1)NC(=O)[C@@H](NC(=O)C1(c3ccc(N)cc3)CCCC1)CC(=O)N1CCCC(CCO2)C1 (stereo partly drawn) [Compound 305, 1-(4-aminophenyl)-N-((9S,12S)-5^4-methyl-8,11,14-trioxo-9-phenethyl-4-oxa-7,10-diaza-1(3,1)-piperidina-5(1,3)-benzenacyclotetradecaphane-12-yl)cyclopentane-1-carboxamide]
< 100 | < 100 | < 100 | Cc1ccc2cc1CNC(=O)[C@H](CCc1ccccc1)NC(=O)[C@@H](NC(=O)Cc1ccc(N)cc1F)CC(=O)N1CCCC(CCO2)C1 (stereo partly drawn) [Compound 318, 2-(4-amino-2-fluorophenyl)-N-((9S,12S)-5^4-methyl-8,11,14-trioxo-9-phenethyl-4-oxa-7,10-diaza-1(3,1)-piperidina-5(1,3)-benzenacyclotetradecaphane-12-yl)acetamide]
< 100 | < 100 | < 100 | Cc1ccc2cc1CNC(=O)[C@H](CCc1ccccc1)NC(=O)[C@@H](NC(=O)c1cccc3cc(N)ncc13)CC(=O)N1CCCC(CCO2)C1 (stereo partly drawn) [Compound 319, 3-amino-N-((9S,12S)-5^4-methyl-8,11,14-trioxo-9-phenethyl-4-oxa-7,10-diaza-1(3,1)-piperidina-5(1,3)-benzenacyclotetradecaphane-12-yl)isoquinoline-8-carboxamide]
